Measured values reported in ChEMBL document CHEMBL6182916, “Unexpected Discovery of a Novel Triphenylphosphonium Alkylalcohol That Triggers Cancer Cell Death via Mitophagy and Ferroptosis” (J Med Chem, 2025).
Calls of active or inactive are those of the source. No cut-off for these calls is given here.

Legend:
[1] = Drug localization in mitochondria of human HCC827 cells assessed as increase in green fluorescence by measuring pearson correlation coefficient at 10 uM incubated for 10 mins by mito-tracker green dye based confocal scanning microscopy analysis; format: ADME; settings: hcc827, 10 min
[2] = Drug uptake in human HCC827 cells mitochondria assessed as increase in fluorescence intensity at 10 uM by fluorescence emission spectroscopy analysis; format: ADME; settings: hcc827, 10 µM
[3] = Drug metabolism in human HCC827 cells mitochondria assessed as 2-(2-(4-hydroxystyryl)-4H-chromen-4-ylidene)malononitrile hydrolysis at 10 uM incubated for 5 mins by fluorescence emission spectroscopy analysis; format: ADME; settings: hcc827, 5 min
[4] = target: T1, Heat shock protein 75 kDa, mitochondrial (Homo sapiens) (UniProt Q12931); experiment: Inhibition of human TRAP1 assessed as fold increase in ATPase activity at 20 uM
T1 sequence (whole entry): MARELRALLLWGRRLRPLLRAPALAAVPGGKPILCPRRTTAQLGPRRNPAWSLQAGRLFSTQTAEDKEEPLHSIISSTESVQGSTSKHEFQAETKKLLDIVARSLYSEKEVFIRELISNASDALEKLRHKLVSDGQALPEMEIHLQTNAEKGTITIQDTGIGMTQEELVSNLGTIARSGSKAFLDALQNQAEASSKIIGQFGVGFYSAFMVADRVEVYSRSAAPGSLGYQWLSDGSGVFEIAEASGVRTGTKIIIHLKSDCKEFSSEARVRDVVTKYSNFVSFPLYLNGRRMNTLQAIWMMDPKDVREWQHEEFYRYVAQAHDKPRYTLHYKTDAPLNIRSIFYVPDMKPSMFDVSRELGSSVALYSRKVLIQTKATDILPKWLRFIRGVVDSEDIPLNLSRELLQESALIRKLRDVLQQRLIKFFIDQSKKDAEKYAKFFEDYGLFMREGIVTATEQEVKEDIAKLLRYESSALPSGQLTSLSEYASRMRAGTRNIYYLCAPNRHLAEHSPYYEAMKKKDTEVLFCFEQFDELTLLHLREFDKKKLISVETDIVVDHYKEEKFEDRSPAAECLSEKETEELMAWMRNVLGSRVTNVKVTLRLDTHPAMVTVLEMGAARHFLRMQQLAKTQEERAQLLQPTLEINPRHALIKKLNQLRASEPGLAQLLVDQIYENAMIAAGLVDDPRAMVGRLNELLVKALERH

A-375 = experiment: Anticancer activity against human A-375 cells assessed as inhibition of cell growth by MTT assay; format: functional, cell-based
HeLa [5] = experiment: Induction of mitophagy in human HeLa cells harbouring mCherry-GFP tag assessed as visible mCherry fluorescence at 40 uM incubated for 24 hrs by confocal microscopy analysis; format: functional, cell-based
HeLa [6] = experiment: Induction of mitophagy in human HeLa cells assessed as colocalization of mitochondria and lysosomes at 40 uM by mitoGFP staining based confocal microscopy analysis; format: functional, cell-based
HeLa [7] = experiment: Induction of mitophagy in human HeLa cells assessed as colocalization of mitochondria and lysosomes at 40 uM by lysotracker red staining based confocal microscopy analysis; format: functional, cell-based
HeLa [8] = experiment: Induction of mitophagy in human HeLa cells harbouring mCherry-GFP tag assessed as reduction in GFP fluorescence at 40 uM incubated for 24 hrs by confocal microscopy analysis; format: functional, cell-based
HCC827 = experiment: Antitumor activity against human HCC827 cells xenografted in female nude mouse model assessed as suppression of tumor growth at 100 mg/kg, ip measured every two days for 14 days; format: functional, organism-based; settings: time 14.0 day

Cc1ccc([P+](CCCCCCCCCCOC(=O)Oc2ccc(/C=C/C3=CC(=C(C#N)C#N)c4ccccc4O3)cc2)(c2ccc(C)cc2)c2ccc(C)cc2)cc1.[Br-]
Drug uptake [1]: 0.84
Drug uptake [2]: Active
Drug metabolism [3]: metabolite_detected

CC1=C(C)C(=O)C(CCCCCCCCCC[P+](c2ccccc2)(c2ccccc2)c2ccccc2)=CC1=O
fold change (FC) [4]: 1.4

O=C(CCCCC(CCSCc1ccccc1)SCc1ccccc1)OCCCCC[P+](c1ccccc1)(c1ccccc1)c1ccccc1 (stereo unspecified)
IC50 (A-375): 4150 nM

O=C(CCCCC(CCSCc1ccccc1)SCc1ccccc1)OCCCCCCCCCC[P+](c1ccccc1)(c1ccccc1)c1ccccc1 (stereo unspecified)
IC50 (A-375): 100 nM

N#CC(C#N)=NNc1cccc(Cl)c1
Activity (HeLa [5]): Active
Activity (HeLa [6]): Active
Activity (HeLa [7]): Active
Activity (HeLa [8]): Active

COc1cc2ncnc(Nc3ccc(F)c(Cl)c3)c2cc1OCCCN1CCOCC1
Activity (HCC827): Active
